Assay results from patent US20230391786A1, “cGAS INHIBITORS” (Eli Lilly and Company, priority 2022, published 2023).
Counter-ions that a name gives are not always drawn.

Biological target: recombinant human cGAS (Homo sapiens (Human), UniProt Q8N884)
Assay: In vitro inhibition assay of cGAS activity (cGAMP production, RapidFire mass spectrometry)
Assay type: biochemical
Conditions: 10 nM recombinant human cGAS, 60 nM 75-bp dsDNA, ATP, GTP, room temperature 3 hours, read-out: IC50 (μM), In vitro inhibition assay for Compounds 1-94
Protocol: Expression and Purification of Recombinant cGAS Protein: Insert cDNA encoding full-length of human cGAS into a modified bacterial expression vector containing an in-frame His6-tag. Induce the E. coli strain BL21(DE3) harboring the plasmid with 1 mM IPTG (Isopropyl β-D-1-thiogalactopyranoside) at 18° C. overnight. Purify the His6-tagged cGAS protein over HISpur Ni-NTA resin in the presence of benzonase and RNase followed by Superdex 200 size exclusion chromatography with storage buffer (50 mM Tris-HCl pH 7.5, 300 mM NaCl, 1 mM DTT, 10% glycerol).
In vitro inhibition assay of cGAS activity: Add a 5 μL mixture containing 10 mM Tris-Cl pH 7.5, 50 mM NaCl, 5 mM MgCl2, 1 mM DTT, 0.01% Triton X-100, 60 nM 75-bp dsDNA, […], 50 μM GTP, 10 nM of recombinant human cGAS, and serial dilutions of a test compound in DMSO to a 384-well plate and incubate at room temperature for 3 hours. Quench the reaction by the addition of 100 μL of stop solution containing 0.1% formic acid and 0.1 μM internal standard (3′3′-difluoro cGAMP). Measure the amount of cGAMP produced by RapidFire 365 mass spectrometry and evaluate inhibitory effect of a compound by plotting percent specific inhibition of cGAMP production against log concentration of the test compound. Calculate IC50 values using a 4-parameter non-linear logistic equation (y=(S0+((SInf−S0)/(1+((qAC50/x)^nHill))))).

Chain of recombinant human cGAS (Q8N884 whole entry): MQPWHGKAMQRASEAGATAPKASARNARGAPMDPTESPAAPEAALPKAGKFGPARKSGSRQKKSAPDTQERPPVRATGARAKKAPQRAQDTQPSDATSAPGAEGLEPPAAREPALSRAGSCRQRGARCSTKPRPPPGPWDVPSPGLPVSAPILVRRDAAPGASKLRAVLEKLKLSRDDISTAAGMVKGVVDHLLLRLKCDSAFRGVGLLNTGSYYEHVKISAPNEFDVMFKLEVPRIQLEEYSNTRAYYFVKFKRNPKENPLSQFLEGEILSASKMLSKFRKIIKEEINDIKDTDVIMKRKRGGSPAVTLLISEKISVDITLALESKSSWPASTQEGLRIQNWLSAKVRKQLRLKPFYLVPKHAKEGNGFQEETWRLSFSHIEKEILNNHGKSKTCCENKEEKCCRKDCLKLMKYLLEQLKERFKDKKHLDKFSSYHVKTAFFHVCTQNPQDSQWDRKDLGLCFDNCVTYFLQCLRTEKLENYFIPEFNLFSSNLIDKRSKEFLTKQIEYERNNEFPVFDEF

IC50	Structure (SMILES)
0.04 µM	CN1CCOC(C(=O)N2CCn3c(c(-c4cn[nH]c4)c4ccc(Cl)c(Cl)c43)C2)C1 (centres unmarked) [Example 50, [6,7-dichloro-10-(1H-pyrazol-4-yl)-3,4-dihydro-1H-pyrazino[1,2-a]indol-2-yl]-(4-methylmorpholin-2-yl)methanone]
0.09 µM	Clc1ccc2c(-c3cn[nH]c3)c3n(c2c1Cl)CCNC3 [Example 37, 6,7-Dichloro-10-(1H-pyrazol-4-yl)-1,2,3,4-tetrahydropyrazino[1,2-a]indole hydrochloride]
0.0223 µM	CN1CCOCC1CC(=O)N1CCn2c(c(-c3cn[nH]c3)c3ccc(Cl)c(Cl)c32)C1 (centres unmarked) [Example 81, 1-[6,7-Dichloro-10-(1H-pyrazol-4-yl)-3,4-dihydro-1H-pyrazino[1,2-a]indol-2-yl]-2-(4-methylmorpholin-3-yl)ethanone]
0.0352 µM	OCCOc1cc(Cl)c(Cl)c2[nH]cc(-c3cn[nH]c3)c12 [Example 57, 2-((6,7-Dichloro-3-(1H-pyrazol-4-yl)-1H-indol-4-yl)oxy)ethanol]
0.0629 µM	Clc1ccc2c(-c3cn[nH]c3)c(CNc3nncs3)[nH]c2c1Cl [Example 10, N-[[6,7-Dichloro-3-(1H-pyrazol-4-yl)-1H-indol-2-yl]methyl]-1,3,4-thiadiazol-2-amine]
0.0225 µM	CS(=O)(=O)NC1CCc2c(-c3cn[nH]c3)c3ccc(Cl)c(Cl)c3n2C1 (single isomer, unassigned) [Example 22, N-[3,4-Dichloro-10-(1H-pyrazol-4-yl)-6,7,8,9-tetrahydropyrido[1,2-a]indol-7-yl]methanesulfonamide]
0.0411 µM	O=C1c2c(-c3cn[nH]c3)c3ccc(Cl)c(Cl)c3n2CCN1CCO [Example 32, 6,7-Dichloro-2-(2-hydroxyethyl)-10-(1H-pyrazol-4-yl)-3,4-dihydropyrazino[1,2-a]indol-1-one]
0.0328 µM	CS(=O)(=O)N1CCn2c(c(-c3cn[nH]c3)c3ccc(Cl)c(Cl)c32)C1 [Example 41, 6,7-dichloro-2-methylsulfonyl-10-(1H-pyrazol-4-yl)-3,4-dihydro-1H-pyrazino[1,2-a]indole]
0.0946 µM	O=C1CCn2c(c(-c3cn[nH]c3)c3ccc(Cl)c(Cl)c32)N1 [Example 55, 6,7-Dichloro-10-(1H-pyrazol-4-yl)-3,4-dihydro-1H-pyrimido[1,2-a]indol-2-one]
0.0449 µM	Clc1ccc2c(-c3cn[nH]c3)c3n(c2c1Cl)CCC(c1nn[nH]n1)C3 (centres unmarked) [Example 69, 3,4-Dichloro-10-(1H-pyrazol-4-yl)-8-(1H-tetrazol-5-yl)-6,7,8,9-tetrahydropyrido[1,2-a]indole]
0.0975 µM	CC(=O)N(C)CC(=O)N1CCn2c(c(-c3cn[nH]c3)c3ccc(Cl)c(Cl)c32)C1 [Example 52, N-[2-[6,7-dichloro-10-(1H-pyrazol-4-yl)-3,4-dihydro-1H-pyrazino[1,2-a]indol-2-yl]-2-oxo-ethyl]-N-methyl-acetamide]
0.155 µM	CC(=O)NC1CCc2c(-c3cn[nH]c3)c3ccc(Cl)c(Cl)c3n2C1 (single isomer, unassigned) [Example 20, N-[3,4-Dichloro-10-(1H-pyrazol-4-yl)-6,7,8,9-tetrahydropyrido[1,2-a]indol-7-yl]acetamide]
0.0452 µM	O=C1Cn2c(c(-c3cn[nH]c3)c3ccc(Cl)c(Cl)c32)CN1CCO [Example 76, 6,7-Dichloro-2-(2-hydroxyethyl)-10-(1H-pyrazol-4-yl)-1,2-dihydropyrazino[1,2-a]indol-3(4H)-one]
0.045 µM	CN1Cc2c(-c3cn[nH]c3)c3ccc(Cl)c(Cl)c3n2CC1=O [Example 75, 6,7-Dichloro-2-methyl-10-(1H-pyrazol-4-yl)-1,2-dihydropyrazino[1,2-a]indol-3(4H)-one]
0.289 µM	OCC1CCn2c(c(-c3cn[nH]c3)c3ccc(Cl)c(Cl)c32)C1 (single isomer, unassigned) [Example 15, [3,4-Dichloro-10-(1H-pyrazol-4-yl)-6,7,8,9-tetrahydropyrido[1,2-a]indol-8-yl]methanol]
0.0863 µM	Clc1ccc2c(-c3cn[nH]c3)c[nH]c2c1Cl [Example 1, 6,7-Dichloro-3-(1H-pyrazol-4-yl)-1H-indole]
0.0818 µM	O=C1NC(CO)Cn2c1c(-c1cn[nH]c1)c1ccc(Cl)c(Cl)c12 (centres unmarked) [Example 80, 6,7-Dichloro-3-(hydroxymethyl)-10-(1H-pyrazol-4-yl)-3,4-dihydro-2H-pyrazino[1,2-a] indol-1-one]
0.0447 µM	Clc1ccc2c(-n3ccnc3)c[nH]c2c1Cl [Example 29, 6,7-Dichloro-3-imidazol-1-yl-1H-indole]
0.0887 µM	CS(=O)(=O)NC1CCc2c(-c3cn[nH]c3)c3ccc(Cl)c(Cl)c3n2C1 (single isomer, unassigned) [Example 23, N-[3,4-Dichloro-10-(1H-pyrazol-4-yl)-6,7,8,9-tetrahydropyrido[1,2-a]indol-7-yl]methanesulfonamide]
0.158 µM	CC(=O)NC1CCn2c1c(-c1cn[nH]c1)c1ccc(Cl)c(Cl)c12 (single isomer, unassigned) [Example 27, N-(5,6-Dichloro-9-(1H-pyrazol-4-yl)-2,3-dihydro-1H-pyrrolo[1,2-a]indol-1-yl)acetamide]
0.0587 µM	CCOc1cc(Cl)c(Cl)c2c1c(-c1cn[nH]c1)c1n2CCNC1 [Example 90, 6,7-Dichloro-9-ethoxy-10-(1H-pyrazol-4-yl)-1,2,3,4-tetrahydropyrazino[1,2-a]indole]
0.0641 µM	Cc1[nH]c2c(Cl)c(Cl)ccc2c1-n1ccnc1 [Example 4, 6,7-Dichloro-3-imidazol-1-yl-2-methyl-1H-indole]
0.0825 µM	NCCN1CCn2c(c(-c3cn[nH]c3)c3ccc(Cl)c(Cl)c32)C1=O [Example 33, 2-(2-Aminoethyl)-6,7-dichloro-10-(1H-pyrazol-4-yl)-3,4-dihydropyrazino[1,2-a]indol-1-one]
0.0326 µM	N#CCOc1cc(Cl)c(Cl)c2[nH]cc(-n3ccnc3)c12 [Example 61, 2-[(6,7-Dichloro-3-imidazol-1-yl-1H-indol-4-yl)oxy]acetonitrile]
0.0557 µM	Cc1[nH]c2c(Cl)c(Cl)ccc2c1-c1cn[nH]c1 [Example 2, 6,7-Dichloro-2-methyl-3-(1H-pyrazol-4-yl)-1H-indole]
0.0486 µM	NC(=O)CNc1cc(Cl)c(Cl)c2[nH]cc(-c3cn[nH]c3)c12 [Example 64, 2-[[6,7-Dichloro-3-(1H-pyrazol-4-yl)-1H-indol-4-yl]amino] acetamide]
0.18 µM	N#Cc1c(Cl)ccc2c(-c3cn[nH]c3)c[nH]c12 [Example 93, 6-Chloro-3-(1H-pyrazol-4-yl)-1H-indole-7-carbonitrile]

Same assay, conditions: 10 nM recombinant human cGAS, 60 nM 75-bp dsDNA, ATP, GTP, room temperature 3 hours, read-out: IC50 (μM), In vitro inhibition assay for Compounds 95-348

IC50	Structure (SMILES)
0.0636 µM	O=C(CCn1ccnc1)N1CCn2c(c(-c3cn[nH]c3)c3ccc(Cl)c(Cl)c32)C1 [Example 328, 1-(6,7-Dichloro-10-(1H-pyrazol-4-yl)-3,4-dihydropyrazino[1,2-a]indol-2(1H)-yl)-3-(1H-imidazol-1-yl)propan-1-one]
0.0585 µM	OCC(O)CNc1cc(Cl)c(Cl)c2[nH]cc(-c3cn[nH]c3)c12 (centres unmarked) [Example 175, 3-[[6,7-Dichloro-3-(1H-pyrazol-4-yl)-1H-indol-4-yl]amino]propane-1,2-diol]
0.0516 µM	COCCOCCC(=O)N1CCn2c(c(-c3cn[nH]c3)c3ccc(Cl)c(Cl)c32)C1 [Example 317, 1-(6,7-Dichloro-10-(1H-pyrazol-4-yl)-3,4-dihydropyrazino[1,2-a]indol-2(1H)-yl)-3-(2-methoxyethoxy)propan-1-one]
0.0561 µM	CC(=O)NCC(=O)NCc1[nH]c2c(Cl)c(Cl)ccc2c1-c1cn[nH]c1 [Example 106, 2-Acetamido-N-((6,7-dichloro-3-(1H-pyrazol-4-yl)-1H-indol-2-yl)methyl)acetamide]
0.083 µM	CN1C(=O)CCCC1C(=O)N1CCn2c(c(-c3cn[nH]c3)c3ccc(Cl)c(Cl)c32)C1 (centres unmarked) [Example 331, 6-(6,7-Dichloro-10-(1H-pyrazol-4-yl)-1,2,3,4-tetrahydropyrazino[1,2-a]indole-2-carbonyl)-1-methylpiperidin-2-one]
0.0561 µM	Cn1ncnc1CCC(=O)N1CCn2c(c(-c3cn[nH]c3)c3ccc(Cl)c(Cl)c32)C1 [Example 110, 1-[6,7-Dichloro-10-(1H-pyrazol-4-yl)-3,4-dihydro-1H-pyrazino[1,2-a]indol-2-yl]-3-(2-methyl-1,2,4-triazol-3-yl)propan-1-one]
0.0864 µM	N#CCC(=O)Nc1cc(Cl)c(Cl)c2[nH]cc(-c3cn[nH]c3)c12 [Example 176, 2-Cyano-N-[6,7-dichloro-3-(1H-pyrazol-4-yl)-1H-indol-4-yl]acetamide]
0.0635 µM	CN1C(=O)CN(CC(=O)N2CCn3c(c(-c4cn[nH]c4)c4ccc(Cl)c(Cl)c43)C2)C1=O [Example 327, 1-(2-(6,7-Dichloro-10-(1H-pyrazol-4-yl)-3,4-dihydropyrazino[1,2-a]indol-2(1H)-yl)-2-oxoethyl)-3-methylimidazolidine-2,4-dione]
